Columns and labels:
barnacle cyprid larva = conditions: barnacles; cited from earlier work
[1] = Stability/hydrolysis of monomers in ethanol and PBS buffer followed by TLC (Setup 1); type: physicochemical; conditions: after two weeks
Procedure: The stability of the carbamate-(M3), urea-(M4) and sulfonylderivative of medetomidine (M2 and M0) were studied in ethanol and phosphate-buffered saline (PBS) buffer. Thin-layer chromatography (TLC) was used to follow the decomposition of the derivatives to free medetomidine. It took approximately two weeks until most of the derivatives stored at room temperature to decompose. If the storage temperature was +6° C. no decomposition was observed.
Nine vials were prepared. Vial 1 contained reference compound medetomidine dissolved in ethanol (1 ml). Substance M2 (25 mg) was added to vial 2 and 3. Substance M3 (25 mg) was added to vial 4 and 5. Substance M4 (25 mg) was added to vial 6 and 7 and substance M0 was added to vial 8 and 9. The solid material in vials 2 to 9 were dissolved in ethanol (1 ml) and PBS buffer pH 7.4 (1 ml) to mimic sea water containing different salts and having a pH slightly basic. Ethanol was chosen as solvent to increase the solubility of the substances. During the study vial 1, 3, 5, 7 and 9 were stored at room temperature, whereas vial 2, 4, 6 and 8 were stored in a refrigerator at +6° C. Stability of the compounds was studied after 0, 1, 2, 5, 6, 9, 13 and 15 days using TLC and dichloromethane—methanol (95-5) as eluent.

[2] = Release of I from monomers into artificial seawater, LC-MS (Setup 2); type: physicochemical; conditions: for Concentration of I released: artificial seawater 3% NaCl pH 8.0, ambient temperature; for Concentration of I (near constant over the study): artificial seawater, days 10-25
Procedure: The stability of M1 and M4 was evaluated via quantification of the release of I into artificial seawater (3% NaCl, pH 8.0). For the experiments, compound M1 (0.023 g) was suspended in 5 mL artificial seawater, while M4 (0.044 g) were suspended in 10 mL artificial seawater. The solutions were stirred (300 rpm) at ambient temperatures and samples were collected at 10, 15, 20 and 25 days. The samples were stored in freezer 2-2.5 months prior to LC-MS analysis.
Samples from the release studies were analyzed using LC-MS. The LC-MS system was composed of an Acquity I-class UPLC with a Waters Xevo G2-S Qtof. The chromatographic separation was obtained on a C18 column with gradient elution (Eluent A, 0.1% NH4 in MQ-water and Eluent B, 100% acetonitrile). The samples (from freezer) were extracted with hexane and the organic extracts were analyzed by LC-MS. Three external calibration curves for I, M1 and M4 were prepared the same way as the samples and used for quantification.

[3] = ethanol/PBS buffer pH 7.4, refrigerator +6° C.
[4] = ethanol/PBS buffer pH 7.4, room temperature

Row | Compound | concentration impeding larval settlement (barnacle cyprid larva) | decomposition to free medetomidine (TLC) [1, 3] | decomposition to free medetomidine (TLC) [1, 4] | Concentration of I released ([2]; incubation 10 days) | Concentration of I released ([2]; incubation 15 days) | Concentration of I released ([2]; incubation 20 days) | Concentration of I released ([2]; incubation 25 days) | Concentration of I (near constant over the study) [2]
1 | Cc1cccc(C(C)c2c[nH]cn2)c1C (racemic) [medetomidine, (±)-4-[1-(2,3-dimethylphenyl)ethyl)-1H-imidazole] | 1 to 10 nM | – | – | – | – | – | – | –
2 | Cc1cccc(C(C)c2cn(S(C)(=O)=O)cn2)c1C (stereo not drawn) [Compound M0, 4-[1-(2,3-dimethylphenyl)ethyl]-1-(methanesulfonyl)-1H-imidazole] | – | stable | stable | – | – | – | – | –
3 | C=C(C)C(=O)n1cnc(C(C)c2cccc(C)c2C)c1 (stereo not drawn) [Compound M1, 1-{4-[1-(2,3-dimethylphenyl)ethyl]-1H-imidazol-1-yl}-2-methylprop-2-en-1-one] | – | – | – | 9330.0 ng/mL | 9905.8 ng/mL | 9748.8 ng/mL | 9820.4 ng/mL | ~9000 ng/mL
4 | C=CCS(=O)(=O)n1cnc(C(C)c2cccc(C)c2C)c1 (stereo not drawn) [Compound M2, 4-[1-(2,3-dimethylphenyl)ethyl]-1-(prop-2-ene-1-sulfonyl)-1H-imidazole] | – | mixture of medetomidine and the starting material | only medetomidine | – | – | – | – | –
5 | C=CCOC(=O)n1cnc(C(C)c2cccc(C)c2C)c1 (stereo not drawn) [Compound M3, prop-2-en-1-yl 4-[1-(2,3-dimethylphenyl)ethyl]-1H-imidazole-1-carboxylate] | – | mixture of medetomidine and the starting material | only medetomidine | – | – | – | – | –
6 | C=CCNC(=O)n1cnc(C(C)c2cccc(C)c2C)c1 (stereo not drawn) [Compound M4, 4-[1-(2,3-dimethylphenyl)ethyl]-N-(prop-2-en-1-yl)-1H-imidazole-1-carboxamide] | – | stable | decomposition to medetomidine as well as non-hydrolyzed M4 | 5028.9 ng/mL | 5592.2 ng/mL | 5078.0 ng/mL | – | ~5000 ng/mL

Source: patent US20230383129A1, “ANTIFOULING COMPOUNDS” (I-Tech AB, priority 2020, published 2023)
